#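 A five-concentration, 48-hour dose response in 96-well plates underlies each endpoint, interpolated linearly between surrounding concentrations. TGI is the concentration that stops growth completely.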
# Experiments:
# Test in all cases: DTP human tumour cell line panel, 48 h
# A549 NSCLC = test system: A549 NSCLC
# NCI-H226 lung = test system: NCI-H226 lung
# IGROV1 ovarian = test system: IGROV1 ovarian
# K-562 leukemia = test system: K-562 leukemia
# NCI-H460 lung = test system: NCI-H460 lung
# SN12C renal = test system: SN12C renal
# MDA-MB-435 = test system: MDA-MB-435
# OVCAR-4 ovarian = test system: OVCAR-4 ovarian
# CAKI-1 renal = test system: CAKI-1 renal
# UACC-257 melanoma = test system: UACC-257 melanoma
# MALME-3M melanoma = test system: MALME-3M melanoma
# HS 578T breast = test system: HS 578T breast
# NCI-H23 lung = test system: NCI-H23 lung
# RXF 393 renal = test system: RXF 393 renal
# SNB-75 CNS = test system: SNB-75 CNS
# HCT-15 colon = test system: HCT-15 colon
# U251 CNS = test system: U251 CNS
# DU-145 prostate = test system: DU-145 prostate
# SNB-19 CNS = test system: SNB-19 CNS
# HCC-2998 colon = test system: HCC-2998 colon
# SF-539 CNS = test system: SF-539 CNS
# OVCAR-3 ovarian = test system: OVCAR-3 ovarian
# BT-549 breast = test system: BT-549 breast
# EKVX NSCLC = test system: EKVX NSCLC
# HCT-116 colon = test system: HCT-116 colon
# NCI-H522 lung = test system: NCI-H522 lung
# A498 renal = test system: A498 renal
# OVCAR-8 ovarian = test system: OVCAR-8 ovarian
# MDA-N = test system: MDA-N
# PC-3 prostate = test system: PC-3 prostate
# SF-295 CNS = test system: SF-295 CNS
# COLO 205 colon = test system: COLO 205 colon
# 786-0 renal = test system: 786-0 renal
# ACHN renal = test system: ACHN renal
# NCI/ADR-RES ovarian = test system: NCI/ADR-RES ovarian
# LOX IMVI melanoma = test system: LOX IMVI melanoma
# KM12 colon = test system: KM12 colon
# SK-MEL-5 melanoma = test system: SK-MEL-5 melanoma
# SF-268 CNS = test system: SF-268 CNS
# HOP-62 NSCLC = test system: HOP-62 NSCLC
# SR leukemia = test system: SR leukemia
# OVCAR-5 ovarian = test system: OVCAR-5 ovarian
# CCRF-CEM leukemia = test system: CCRF-CEM leukemia
# MCF7 breast = test system: MCF7 breast
# HT29 colon = test system: HT29 colon
# SW-620 colon = test system: SW-620 colon
# HL-60(TB) leukemia = test system: HL-60(TB) leukemia
# MOLT-4 leukemia = test system: MOLT-4 leukemia
# RPMI-8226 leukemia = test system: RPMI-8226 leukemia
# SK-MEL-28 melanoma = test system: SK-MEL-28 melanoma
# MDA-MB-231 breast = test system: MDA-MB-231 breast
# HOP-92 NSCLC = test system: HOP-92 NSCLC
# UO-31 renal = test system: UO-31 renal
# TK-10 renal = test system: TK-10 renal
# UACC-62 melanoma = test system: UACC-62 melanoma
# M14 melanoma = test system: M14 melanoma
# T-47D breast = test system: T-47D breast
# SK-OV-3 ovarian = test system: SK-OV-3 ovarian
# SK-MEL-2 melanoma = test system: SK-MEL-2 melanoma
compound,measurement,setting,value
Cc1ccc2oc(=O)c(C(=O)Nc3nc(C45CC6CC(CC(C6)C4)C5)cs3)cc2c1,TGI,A549 NSCLC,> 100 µM
same,TGI,NCI-H226 lung,> 100 µM
same,TGI,IGROV1 ovarian,> 100 µM
same,TGI,K-562 leukemia,> 100 µM
same,TGI,NCI-H460 lung,> 100 µM
same,TGI,SN12C renal,> 100 µM
same,TGI,MDA-MB-435,> 100 µM
same,TGI,OVCAR-4 ovarian,> 100 µM
same,TGI,CAKI-1 renal,> 100 µM
same,TGI,UACC-257 melanoma,> 100 µM
same,TGI,MALME-3M melanoma,> 100 µM
same,TGI,HS 578T breast,> 100 µM
same,TGI,NCI-H23 lung,> 100 µM
same,TGI,RXF 393 renal,> 100 µM
same,TGI,SNB-75 CNS,> 100 µM
same,TGI,HCT-15 colon,> 100 µM
same,TGI,U251 CNS,> 100 µM
same,TGI,DU-145 prostate,> 100 µM
same,TGI,SNB-19 CNS,> 100 µM
same,TGI,HCC-2998 colon,> 100 µM
same,TGI,SF-539 CNS,> 100 µM
same,TGI,OVCAR-3 ovarian,> 100 µM
same,TGI,BT-549 breast,> 100 µM
same,TGI,EKVX NSCLC,> 100 µM
same,TGI,HCT-116 colon,> 100 µM
same,TGI,NCI-H522 lung,> 100 µM
same,TGI,A498 renal,> 100 µM
same,TGI,OVCAR-8 ovarian,> 100 µM
same,TGI,MDA-N,> 100 µM
same,TGI,PC-3 prostate,> 100 µM
same,TGI,SF-295 CNS,> 100 µM
same,TGI,COLO 205 colon,> 100 µM
same,TGI,786-0 renal,> 100 µM
same,TGI,ACHN renal,> 100 µM
same,TGI,NCI/ADR-RES ovarian,> 100 µM
same,TGI,LOX IMVI melanoma,> 100 µM
same,TGI,KM12 colon,> 100 µM
same,TGI,SK-MEL-5 melanoma,> 100 µM
same,TGI,SF-268 CNS,> 100 µM
same,TGI,HOP-62 NSCLC,> 100 µM
same,TGI,SR leukemia,> 100 µM
same,TGI,OVCAR-5 ovarian,> 100 µM
same,TGI,CCRF-CEM leukemia,> 100 µM
same,TGI,MCF7 breast,> 100 µM
same,TGI,HT29 colon,> 100 µM
same,TGI,SW-620 colon,> 100 µM
same,TGI,HL-60(TB) leukemia,> 100 µM
same,TGI,MOLT-4 leukemia,> 100 µM
same,TGI,RPMI-8226 leukemia,> 100 µM
same,TGI,SK-MEL-28 melanoma,> 100 µM
same,TGI,MDA-MB-231 breast,> 100 µM
same,TGI,HOP-92 NSCLC,> 100 µM
same,TGI,UO-31 renal,> 100 µM
CCOC(=O)CNc1nc(=O)c2c(=O)oc(Cl)cc2o1,TGI,TK-10 renal,28 µM
same,TGI,A549 NSCLC,40.6 µM
same,TGI,UACC-62 melanoma,39.9 µM
same,TGI,NCI-H226 lung,> 100 µM
same,TGI,IGROV1 ovarian,21.7 µM
same,TGI,K-562 leukemia,24.4 µM
same,TGI,NCI-H460 lung,36.2 µM
same,TGI,SN12C renal,53.1 µM
same,TGI,MDA-MB-435,35.4 µM
same,TGI,OVCAR-4 ovarian,34.3 µM
same,TGI,CAKI-1 renal,29.1 µM
same,TGI,UACC-257 melanoma,38.4 µM
same,TGI,M14 melanoma,49.1 µM
same,TGI,MALME-3M melanoma,23.5 µM
same,TGI,HS 578T breast,45.1 µM
same,TGI,NCI-H23 lung,38.5 µM
same,TGI,T-47D breast,61.7 µM
same,TGI,SNB-75 CNS,24.7 µM
same,TGI,HCT-15 colon,23.7 µM
same,TGI,U251 CNS,85.3 µM
same,TGI,DU-145 prostate,> 100 µM
same,TGI,SNB-19 CNS,> 100 µM
same,TGI,SK-OV-3 ovarian,> 100 µM
same,TGI,HCC-2998 colon,29 µM
same,TGI,SF-539 CNS,22 µM
same,TGI,OVCAR-3 ovarian,25.5 µM
same,TGI,EKVX NSCLC,29.6 µM
same,TGI,HCT-116 colon,24.4 µM
same,TGI,NCI-H522 lung,17.3 µM
same,TGI,A498 renal,38 µM
same,TGI,OVCAR-8 ovarian,23.2 µM
same,TGI,MDA-N,48 µM
same,TGI,PC-3 prostate,26 µM
same,TGI,SF-295 CNS,> 100 µM
same,TGI,COLO 205 colon,> 100 µM
same,TGI,786-0 renal,21.9 µM
same,TGI,ACHN renal,26.3 µM
same,TGI,NCI/ADR-RES ovarian,50.3 µM
same,TGI,LOX IMVI melanoma,22.3 µM
same,TGI,KM12 colon,55.3 µM
same,TGI,SK-MEL-5 melanoma,> 100 µM
same,TGI,SF-268 CNS,27.9 µM
same,TGI,HOP-62 NSCLC,53.3 µM
same,TGI,OVCAR-5 ovarian,38.7 µM
same,TGI,CCRF-CEM leukemia,68.3 µM
same,TGI,HT29 colon,22.6 µM
same,TGI,SW-620 colon,85.6 µM
same,TGI,SK-MEL-2 melanoma,44.5 µM
same,TGI,MOLT-4 leukemia,29.8 µM
same,TGI,SK-MEL-28 melanoma,63.7 µM
same,TGI,MDA-MB-231 breast,59.1 µM
same,TGI,HOP-92 NSCLC,19.5 µM
same,TGI,UO-31 renal,25.4 µM
